Measurements from patent publication US9988400B2 (Genentech, Inc., priority 2013, dated 2018).

Target: T1, HEK cells stably transfected with tetracycline inducible hNR1 and hNR2A (Homo sapiens, UniProt Q05586+Q12879)
T1 construct: expressed in transfected cells; host or cells: HEK cells, stably transfected, tetracycline/doxycycline inducible
Test: Assay 1: Cell-Based Assay, cytosolic calcium response to positive allosteric modulators (with 30 μM glycine and 300 nM L-glutamate, EC30)
Conditions: for EC50: cytosolic calcium response, with 30 μM glycine and 300 nM L-glutamate (EC30), — = no plateau was reached; for Max %: responses scaled relative to 100 μM L-glutamate maximal response (100%) and 0 μM L-glutamate (0%)
Protocol: Assay 1: Cell-Based Assay
HEK cells stably transfected with tetracycline inducible hNR1 and hNR2A were seeded into clear bottom 384 well poly-D-lysine coated plates (2.5×10^4 cells per well) in Minimum Essential Media (MEM; without L-) including 7.5 μg mL^−1 doxycycline and 500 μM (+)-ketamine. The cells were incubated at 37° C. in 5% CO2 for 24 h. For measurement of changes in cytosolic calcium, the seeding media was removed and the cells incubated at 37° C. for 60 min with 1× Becton Dickinson Calcium Assay Kit reagent in Hanks Balanced Salt Solution (HBSS; w/o magnesium, including 1.8 mM calcium, 0.65 mg ml^−1 probenecid and 10 μM (+)-ketamine, pH 7.15) then allowed to equilibrate to rt for 30 min. Concentration-effect curves to Positive Allosteric Modulators (PAMs) were constructed by adding different concentrations (with 30 μM glycine and 300 nM L-glutamate (EC30)) to different wells in HBSS. Compounds were added after a 10 second baseline read and maximum level of relative fluorescence units (RFU) was measured over a 5 min period. Responses were scaled relative to 100 μM L-glutamate maximal response (100%) and 0 μM L-glutamate (0%). EC50 values are provided for compounds reaching maximal response plateaus, and the max % (EC50 (- -)) only if no plateau was reached.
A four-parameter Hill equation was fitted to individual concentration-effect curves:
[formula] in which Y, S0, Sinf, AC50, n and c were effect, lower-asymptote, upper-asymptote, mid-point location, slope parameter, and concentration respectively.

T1 sequence (Q12879 23-1464, other chains not shown): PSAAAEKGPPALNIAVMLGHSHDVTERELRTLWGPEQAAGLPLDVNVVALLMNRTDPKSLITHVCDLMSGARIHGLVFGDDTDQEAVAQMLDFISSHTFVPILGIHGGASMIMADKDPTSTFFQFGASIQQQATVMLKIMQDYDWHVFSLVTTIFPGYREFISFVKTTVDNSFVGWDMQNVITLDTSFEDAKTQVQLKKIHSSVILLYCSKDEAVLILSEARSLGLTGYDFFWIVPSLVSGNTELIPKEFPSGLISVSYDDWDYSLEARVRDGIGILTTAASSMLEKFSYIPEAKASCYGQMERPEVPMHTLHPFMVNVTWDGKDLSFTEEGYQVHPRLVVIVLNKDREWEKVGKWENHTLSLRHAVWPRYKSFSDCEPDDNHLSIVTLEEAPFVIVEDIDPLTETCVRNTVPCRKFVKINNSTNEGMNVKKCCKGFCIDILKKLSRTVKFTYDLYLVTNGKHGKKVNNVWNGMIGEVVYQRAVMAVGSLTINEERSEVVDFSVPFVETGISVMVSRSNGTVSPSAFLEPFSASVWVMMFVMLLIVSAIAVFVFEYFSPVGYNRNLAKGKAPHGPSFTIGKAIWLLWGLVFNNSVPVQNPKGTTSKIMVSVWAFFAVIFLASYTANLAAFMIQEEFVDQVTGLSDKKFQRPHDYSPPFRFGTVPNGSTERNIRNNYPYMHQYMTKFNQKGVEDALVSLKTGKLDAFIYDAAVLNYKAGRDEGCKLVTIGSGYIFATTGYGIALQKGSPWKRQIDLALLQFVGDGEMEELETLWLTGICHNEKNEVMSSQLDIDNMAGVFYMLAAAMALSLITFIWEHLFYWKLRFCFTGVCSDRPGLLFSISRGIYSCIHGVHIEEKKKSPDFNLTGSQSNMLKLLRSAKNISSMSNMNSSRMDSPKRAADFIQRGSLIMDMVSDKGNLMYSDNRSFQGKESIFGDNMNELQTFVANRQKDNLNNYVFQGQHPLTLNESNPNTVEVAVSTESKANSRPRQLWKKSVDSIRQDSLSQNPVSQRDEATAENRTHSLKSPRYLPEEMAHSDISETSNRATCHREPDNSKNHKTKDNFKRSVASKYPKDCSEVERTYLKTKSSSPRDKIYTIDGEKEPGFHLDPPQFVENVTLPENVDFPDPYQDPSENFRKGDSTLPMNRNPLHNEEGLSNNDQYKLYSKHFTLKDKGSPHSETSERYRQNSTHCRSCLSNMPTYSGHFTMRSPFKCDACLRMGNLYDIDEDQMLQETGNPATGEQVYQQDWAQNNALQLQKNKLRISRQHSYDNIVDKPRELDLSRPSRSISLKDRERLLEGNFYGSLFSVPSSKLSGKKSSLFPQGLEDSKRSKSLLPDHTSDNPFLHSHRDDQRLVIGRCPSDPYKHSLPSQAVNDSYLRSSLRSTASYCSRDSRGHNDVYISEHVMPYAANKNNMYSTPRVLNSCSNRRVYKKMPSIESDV

CNC(=O)Cc1c(C)sc2nc(Cc3cccc(Cl)c3F)cc(=O)n12 [compound 7, 2-[7-[(3-chloro-2-fluoro-phenyl)methyl]-2-methyl-5-oxo-thiazolo[3,2-a]pyrimidin-3-yl]-N-methyl-acetamide]
EC50 (Table 3): 9.73 µM

O=c1cc(Cn2nc(C(F)(F)F)cc2C2CC2)nc2sc3c(n12)CCC3 [Example 27.5, 10-{[5-cyclopropyl-3-(trifluoromethyl)-1H-pyrazol-1-yl]methyl}-7-thia-1,9-diazatricyclo[6.4.0.0^{2,6}]dodeca-2(6),8,10-trien-12-one]
EC50 (Table 2): 30.4 µM

CCNC(=O)c1c(C)sc2nc(Cc3cccc(C4CC4)c3F)cc(=O)n12 [Example 21.25, 7-(3-cyclopropyl-2-fluorobenzyl)-N-ethyl-2-methyl-5-oxo-5H-thiazolo[3,2-a]pyrimidine-3-carboxamide]
EC50 (Table 2): 3.9 µM
Max % (Table 2): 105%

O=c1cc(Cn2nc(C(F)(F)F)cc2Cl)nc2sc(C(F)(F)F)c(C3CC3CO)n12 (single isomer, unassigned) [compound 270]
EC50 (Table 3): 0.518 µM

CCNC(=O)c1c(C)sc2nc(Cc3c(F)ccc(F)c3F)cc(=O)n12 [compound 2, N-ethyl-2-methyl-5-oxo-7-[(2,3,6-trifluorophenyl)methyl]thiazolo[3,2-a]pyrimidine-3-carboxamide]
EC50 (Table 3): 33.7 µM

CNC(=O)c1c(C)sc2nc(COc3ccc(F)cc3)cc(=O)n12 [Example 1.2, 7-(4-Fluorophenoxymethyl)-N,2-dimethyl-5-oxo-5H-[1,3]thiazolo[3,2-a]pyrimidine-3-carboxamide]
Max % (Table 2): 92%

Cc1sc2nc(Cc3cccc(C#N)c3F)c(F)c(=O)n2c1C(=O)NCC(F)(F)F [compound 15, 7-[(3-cyano-2-fluoro-phenyl)methyl]-6-fluoro-2-methyl-5-oxo-N-(2,2,2-trifluoroethyl)thiazolo[3,2-a]pyrimidine-3-carboxamide]
EC50 (Table 3): 9.02 µM

Cc1sc2nc(Cc3cccc(C(F)(F)F)c3F)cc(=O)n2c1CO [Example 27.14, 7-(2-fluoro-3-(trifluoromethyl)benzyl)-3-(hydroxymethyl)-2-methyl-5H-thiazolo[3,2-a]pyrimidin-5-one]
EC50 (Table 2): 44.5 µM

CNC(=O)c1c(C(F)(F)F)sc2nc(Cn3nc(C4CC4)cc3C(F)(F)F)cc(=O)n12 [compound 54, 7-[[3-cyclopropyl-5-(trifluoromethyl)pyrazol-1-yl]methyl]-N-methyl-5-oxo-2-(trifluoromethyl)thiazolo[3,2-a]pyrimidine-3-carboxamide]
EC50 (Table 3): 2.2 µM

Cc1sc2nc(COc3ccc(F)cc3)cc(=O)n2c1C(C)O (stereo not drawn) [Example 2.3, 7-(4-Fluorophenoxymethyl)-3-(1-hydroxyethyl)-2-methyl-5H-[1,3]thiazolo[3,2-a]pyrimidin-5-one]
EC50 (Table 2): 12.6 µM
Max % (Table 2): 49.8%

O=c1cc(Cn2nc(C(F)(F)F)cc2Cl)nc2sc3c(n12)CCC3 [compound 89]
EC50 (Table 3): 9.04 µM

CCCc1c(C)sc2nc(CN(CC)c3ccc(F)cc3)cc(=O)n12 [Example 5.41, 7-((ethyl(4-fluorophenyl)amino)methyl)-2-methyl-3-propyl-5H-thiazolo[3,2-a]pyrimidin-5-one]
EC50 (Table 2): 2 µM
Max % (Table 2): 125%

CNC(=O)c1csc2nc(COc3ccc(F)cc3)cc(=O)n12 [Example 3.5, 7-((4-fluorophenoxy)methyl)-N-methyl-5-oxo-5H-thiazolo[3,2-a]pyrimidine-3-carboxamide]
Max % (Table 2): 65.6%

O=c1cc(Cn2nc(C(F)(F)F)cc2Cl)nc2sc(C(F)(F)F)c(-c3cncnc3)n12 [compound 171, 7-[[5-chloro-3-(trifluoromethyl)pyrazol-1-yl]methyl]-3-pyrimidin-5-yl-2-(trifluoromethyl)thiazolo[3,2-a]pyrimidin-5-one]
EC50 (Table 3): 1.21 µM

CCNC(=O)c1c(C2CC2)sc2nc(Cc3cccc(C#N)c3F)cc(=O)n12 [Example 21.9, 7-(3-cyano-2-fluorobenzyl)-2-cyclopropyl-N-ethyl-5-oxo-5H-thiazolo[3,2-a]pyrimidine-3-carboxamide]
Max % (Table 2): 90.1%

Cc1sc2nc(COc3ccc(F)cc3)cc(=O)n2c1C1CC1CO (single isomer, unassigned) [Example 4.2, 7-(4-Fluorophenoxymethyl)-3-[trans-2-(hydroxymethyl)cyclopropyl]-2-methyl-5H-[1,3]thiazolo[3,2-a]pyrimidin-5-one]
EC50 (Table 2): 1.3 µM
Max % (Table 2): 137%

O=c1cc(Cn2nc(Cl)cc2C(F)(F)F)nc2sc(C(F)(F)F)c(-c3cccnc3)n12 [compound 173, 7-[[3-chloro-5-(trifluoromethyl)pyrazol-1-yl]methyl]-3-(3-pyridyl)-2-(trifluoromethyl)thiazolo[3,2-a]pyrimidin-5-one]
EC50 (Table 3): 24.7 µM

CCNC(=O)c1c(C)sc2nc(Cc3cc(C#N)ccc3C3CC3)cc(=O)n12 [Example 21.66, 7-(5-cyano-2-cyclopropylbenzyl)-N-ethyl-2-methyl-5-oxo-5H-thiazolo[3,2-a]pyrimidine-3-carboxamide]
Max % (Table 2): 92.4%

CCOCc1c(C)sc2nc(CN(CC)c3ccc(F)cc3)cc(=O)n12 [Example 10.16, 3-(ethoxymethyl)-7-[(N-ethyl-4-fluoro-anilino)methyl]-2-methyl-thiazolo[3,2-a]pyrimidin-5-one]
EC50 (Table 2): 2.7 µM
Max % (Table 2): 147%

Cc1sc2nc(COc3ccc(F)cc3)cc(=O)n2c1-c1ncco1 [Example 4.11, 7-((4-fluorophenoxy)methyl)-2-methyl-3-(oxazol-2-yl)-5H-thiazolo[3,2-a]pyrimidin-5-one]
EC50 (Table 2): 4.8 µM
Max % (Table 2): 40.8%

CCNC(=O)c1c(C)sc2nc(Cc3cccc(C(F)F)c3F)cc(=O)n12 [Example 21.20, 7-[[3-(difluoromethyl)-2-fluoro-phenyl]methyl]-N-ethyl-2-methyl-5-oxo-thiazolo[3,2-a]pyrimidine-3-carboxamide]
EC50 (Table 2): 5.2 µM
Max % (Table 2): 114%

CCN(Cc1cc(=O)n2c(C#N)c(C)sc2n1)c1cc(F)cc(F)c1 [Example 7.9, 7-(((3,5-difluorophenyl)(ethyl)amino)methyl)-2-methyl-5-oxo-5H-thiazolo[3,2-a]pyrimidine-3-carbonitrile]
EC50 (Table 2): 1.3 µM
Max % (Table 2): 121%

Cc1sc2nc(Cc3cccc(C#N)c3F)cc(=O)n2c1N1CCC1 [compound 113, 3-[[3-(azetidin-1-yl)-2-methyl-5-oxo-thiazolo[3,2-a]pyrimidin-7-yl]methyl]-2-fluoro-benzonitrile]
EC50 (Table 3): 2.37 µM

Cc1sc2nc(Cn3nc(C(F)(F)F)cc3Cl)cc(=O)n2c1/C=C/C#N [compound 262, (E)-3-[7-[[5-chloro-3-(trifluoromethyl)pyrazol-1-yl]methyl]-2-methyl-5-oxo-thiazolo[3,2-a]pyrimidin-3-yl]prop-2-enenitrile]
EC50 (Table 3): 1.11 µM

CCN(Cc1cc(=O)n2c(C(O)CCO)c(C)sc2n1)c1ccc(F)cc1 (single isomer, unassigned) [Example 12.4, 3-(1,3-dihydroxypropyl)-7-[(N-ethyl-4-fluoro-anilino)methyl]-2-methyl-thiazolo[3,2-a]pyrimidin-5-one]
EC50 (Table 2): 0.591 µM
Max % (Table 2): 176%

Cc1sc2nc(Cn3nc(C(F)(F)F)cc3C#N)cc(=O)n2c1[C@@H]1C[C@H]1CO (relative stereo) [Example 15.19, 1-((3-(trans-2-(hydroxymethyl)cyclopropyl)-2-methyl-5-oxo-5H-thiazolo[3,2-a]pyrimidin-7-yl)methyl)-3-(trifluoromethyl)-1H-pyrazole-5-carbonitrile]
EC50 (Table 2): 0.512 µM
Max % (Table 2): 126%

CCN(Cc1cc(=O)n2c(C3CC3)c(C)sc2n1)c1ccc(F)cc1 [Example 5.26, 3-cyclopropyl-7-[(N-ethyl-fluoro-anilino)methyl]-2-methyl-thiazolo[3,2-a]pyrimidin-5-one]
EC50 (Table 2): 0.563 µM
Max % (Table 2): 149%

CCNC(=O)c1c(C(F)(F)F)sc2nc(Cc3cccc(Cl)c3F)cc(=O)n12 [compound 50, 7-[(3-chloro-2-fluoro-phenyl)methyl]-N-ethyl-5-oxo-2-(trifluoromethyl)thiazolo[3,2-a]pyrimidine-3-carboxamide]
EC50 (Table 3): 6.4 µM

Cc1sc2nc(Cn3nc(C(F)(F)F)cc3Cl)cc(=O)n2c1Cn1cccn1 [compound 186, 7-[[5-chloro-3-(trifluoromethyl)pyrazol-1-yl]methyl]-2-methyl-3-(pyrazol-1-ylmethyl)thiazolo[3,2-a]pyrimidin-5-one]
EC50 (Table 3): 3.85 µM

Cc1sc2nc(Cc3cccc(C(F)(F)F)c3F)cc(=O)n2c1-c1ncc[nH]1 [compound 47, 7-[[2-fluoro-3-(trifluoromethyl)phenyl]methyl]-3-(1H-imidazol-2-yl)-2-methyl-thiazolo[3,2-a]pyrimidin-5-one]
EC50 (Table 3): 5.14 µM

CCNC(=O)c1c(C(F)(F)F)sc2nc(Cc3cccc(C(F)F)c3F)cc(=O)n12 [compound 42, 7-[[3-(difluoromethyl)-2-fluoro-phenyl]methyl]-N-ethyl-5-oxo-2-(trifluoromethyl)thiazolo[3,2-a]pyrimidine-3-carboxamide]
EC50 (Table 3): 1.57 µM
